# Source: patent US11141407B2, “Pharmaceutical composition for preventing or treating aids comprising rhodanine derivative” (AVIXGEN INC., priority 2018, dated 2021)
# Like-named read-outs stand apart in the source and are kept apart here.
# Columns and labels:
# Format in all cases: cell-based
# [1] = test system: NL43-derived HIV-1 carrying the GFP gene; conditions: p24 ELISA after 4 days; for Actually measured virus inhibitory value (%): alone, MT4 cells
# Method: MT4 cells (a type of T cell line) were cultured in RPMI supplemented with 10% FBS and 10% antibiotics (penicillin and streptomycin). The cells were subcultured every 2 days in a humidified incubator at 37° C. and 5% CO2 for maintenance.
# All viruses used for infection are NL43-derived HIV-1 carrying the GFP gene. The viral gene is recombined with the GFP gene, so that an expression rate of GFP may represent a level of viral infection. In order to identify antiviral efficacy, MT4 cells, which are a human-derived T cell line, were used. The MT4 cells were inoculated into 48-well plates at a density of 1×10^5 cells/well and infected with HIV-1 in an amount corresponding to 0.5 ng of HIV-1 p24. Treatment with mixtures to be tested for efficacy was performed simultaneously with the infection. The mixtures were prepared by mixing AVI-CO-004 with AZT, 3TC, Tenofovir, or FTC, respectively. […] Virus supernatant was collected and cell residues were removed. Then, analysis was performed. The viral production was quantified by p24 ELISA assay.
# Specifically, 100,000 MT4 cells were respectively inoculated into 48-well plates and infected with HIV-1 in an amount corresponding to 0.5 ng of HIV-1 p24. Treatment with AVI-CO-004 was performed at indicated concentrations. After 4 days, an amount of viruses produced was quantified by p24 ELISA assay.
# (§1) In the present experiment, antiviral efficacy of a mixture of AVI-CO-004 and AZT was identified. First, 100,000 MT4 cells were respectively inoculated into 48-well plates and infected with HIV-1 in an amount corresponding to 0.5 ng of HIV-1 p24. Treatment with a mixture of AVI-CO-004 and AZT was performed at indicated concentrations. After 4 days, an amount of viruses produced was quantified by p24 ELISA assay.
# as §1, with “3TC” for “AZT”
# as §1, with “TFV” for “AZT”
# as §1, with “FTC” for “AZT”
# [2] = test system: NL43-derived HIV-1 carrying the GFP gene; conditions: alone, MT4 cells, p24 ELISA 3 days after infection
# Method: Specifically, MT4 cells were inoculated at 1×10^5 cells into 48-well plates and infected with HIV-1 in an amount corresponding to 1 ng of p24. All viruses used for the infection are NL43-derived HIV-1 carrying the GFP gene. Together with the infection, the cells were treated with 0.5 μM, 1 μM, 2.5 μM, or 5 μM of AVI-CO-004 alone. Three days after the infection, a level of viral proliferation was identified by GFP expression using a fluorescence microscope (A of FIG. 6). Virus supernatant was collected and cell residues were removed; and HIV-1 P24 antigen ELISA assay was performed to identify a level of viral production (B of FIG. 6).
# First, MT4 cells were inoculated at 1×10^5 cells into 48-well plates and infected with HIV-1 in an amount corresponding to 1 ng of p24. Together with the infection, the cells were treated with AVI-CO-004 at 0.5 μM and 1 μM in combination with 1 nM of AZT (zidovudine) and 0.5 nM of 3TC (lamivudine) fixed as basal therapeutic agents. Three days after the infection, a level of viral proliferation was identified by GFP expression using a fluorescence microscope (A of FIG. 7). Virus supernatant was collected and cell residues were removed; and HIV-1 P24 antigen ELISA assay was performed to identify a level of viral production (B of FIG. 7).
# First, MT4 cells were inoculated at 1×10^5 cells into 48-well plates and infected with HIV-1 in an amount corresponding to 1 ng of p24. Together with the infection, the cells were treated with AVI-CO-004 at 0.5 μM, 1 μM, 2.5 μM, and 5 μM in combination with 0.25 μM of TFV and 0.2 μM of FTC fixed as basal therapeutic agents. Three days after the infection, a level of viral proliferation was identified by GFP expression using a fluorescence microscope (A of FIG. 8). Virus supernatant was collected and cell residues were removed; and HIV-1 P24 antigen ELISA assay was performed to identify a level of viral production (B of FIG. 8).
# [3] = test system: NL43-derived HIV-1 carrying the GFP gene; assay: Reinfectivity of viral particles produced after treatment: healthy MT4 cells reinfected (2.5 ng p24), GFP-positive cells counted by FACS after 48 hours; conditions: for Decreased reinfectivity (%): alone, reinfection of MT4 cells, FACS
# Method: In order to identify reinfectivity of viruses produced after treatment with AVI-CO-004 alone, healthy T cells inoculated at 1×10^5 cells into 48-well plates were infected with the same amount (2.5 ng in p24) of purified viral particles produced in infection assay in Example 2. After 48 hours, a level of reinfectivity of the viral particles was identified by GFP expression using a fluorescence microscope. For quantification, GFP-positive cells re-infected with the viruses were counted using a fluorescence activated cell sorter (FACS) and indicated (A of FIG. 9), and the results were graphically represented (B of FIG. 9).
# In order to compare reinfectivity of the viruses produced after treatment with AVI-CO-004 alone and after combined treatment with AVI-CO-004/AZT/3TC or AVI-CO-004/TFV/FTC, the purified viral particles produced after the combined treatment in Example 2 and a control which had not been treated with an inhibitor were quantified at the same amount (2.5 ng of p24), and used to reinfect healthy T cells.
# First, healthy MT4 cells were inoculated at 1×10^5 cells into 48-well plates and infected with the same amount (2.5 ng in p24) of purified viral particles produced in infection assay in Example 2. After 48 hours, a level of reinfectivity of the viruses was identified by GFP expression using a fluorescence microscope. For quantification, GFP-positive cells re-infected with the viruses were counted using a fluorescence activated cell sorter (FACS) and indicated, and the results were graphically represented (FIGS. 10 and 11).
smiles,measurement,setting,value
"Nc1ccn([C@@H]2CS[C@H](CO)O2)c(=O)n1 [3TC, 2′-3′-dideoxy-3′-thiacytidine]",Actually measured virus inhibitory value (%),[1]; amount used 1 nM,25%
"O=C(O)CCN1C(=O)/C(=C/c2ccc(-c3ccc(Cl)cc3)o2)SC1=S [AVI-CO-004, 3-{5-[5-(4-chloro-phenyl)-furan-2-ylmethylene]-4-oxo-2-thioxo-thiazolidin-3-yl}-propionic acid]",Actually measured virus inhibitory value (%),[1]; amount used 2.5 μM,12%
same,Actually measured virus inhibitory value (%),[1]; amount used 5 μM,40%
same,antiviral effect (amount of viruses produced),"[1]; treatment alone at increasing concentrations, p<0.05",concentration-dependent antiviral effect
same,Actually measured virus inhibitory value (%),[2]; amount used 0.5 μM,14.4%
same,Actually measured virus inhibitory value (%),[2]; amount used 1 μM,44%
same,Actually measured virus inhibitory value (%),[2]; amount used 2.5 μM,61.2%
same,Actually measured virus inhibitory value (%),[2]; amount used 5 μM,76.3%
same,"reinfectivity of viruses produced after treatment, compared with a control","[3]; treatment alone, reinfection of healthy cells",significantly decreased reinfectivity
same,Decreased reinfectivity (%),[3]; viruses produced under 0.5 μM,35.8%
same,Decreased reinfectivity (%),[3]; viruses produced under 1 μM,65.3%
same,Decreased reinfectivity (%),[3]; viruses produced under 2.5 μM,97.5%
same,Decreased reinfectivity (%),[3]; viruses produced under 5 μM,97.5%
"Cc1cn([C@H]2C[C@H](N=[N+]=[N-])[C@@H](CO)O2)c(=O)[nH]c1=O [AZT, 3′-azido-3′-deoxythymidine]",Actually measured virus inhibitory value (%),[1]; amount used 1 nM,9%
Nc1nc(=O)n([C@@H]2CS[C@H](CO)O2)cc1F [FTC],Actually measured virus inhibitory value (%),[1]; amount used 5 nM,19%
"C[C@H](Cn1cnc2c(N)ncnc21)OCP(=O)(O)O [TFV, tenofovir]",Actually measured virus inhibitory value (%),[1]; amount used 0.25 μM,30%
